For 16 molecules, DC50 results are on record in patent publication US20240190880A1 (THE REGENTS OF THE UNIVERSITY OF MICHIGAN, priority 2021, published 2024).

Structures are written as SMILES.

In one experiment the target is T1, ER (Homo sapiens, UniProt P03372).
T1 construct: host or cells: T47D and MCF7 human breast cancer cells
T1 sequence (P03372 1-595): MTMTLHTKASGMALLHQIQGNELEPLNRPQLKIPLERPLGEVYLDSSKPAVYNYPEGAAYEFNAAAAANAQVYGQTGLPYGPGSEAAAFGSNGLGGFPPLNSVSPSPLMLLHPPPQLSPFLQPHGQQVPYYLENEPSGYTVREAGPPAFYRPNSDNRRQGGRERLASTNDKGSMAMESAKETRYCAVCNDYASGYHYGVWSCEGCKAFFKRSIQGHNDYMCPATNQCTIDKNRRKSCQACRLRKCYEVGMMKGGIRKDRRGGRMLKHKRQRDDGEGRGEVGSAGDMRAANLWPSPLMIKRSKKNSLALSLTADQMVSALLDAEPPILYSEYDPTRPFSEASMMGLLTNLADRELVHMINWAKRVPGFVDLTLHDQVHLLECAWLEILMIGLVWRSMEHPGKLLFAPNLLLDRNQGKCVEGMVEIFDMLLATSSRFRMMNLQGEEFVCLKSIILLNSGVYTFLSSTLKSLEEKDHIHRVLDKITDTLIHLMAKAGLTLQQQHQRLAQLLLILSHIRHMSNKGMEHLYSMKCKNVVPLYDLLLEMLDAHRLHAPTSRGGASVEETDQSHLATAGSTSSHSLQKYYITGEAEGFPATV
As to the kind of experiment: ER degradation activity, in-cell western blot analysis in T47D cells. The experiment is classed as cell-based. Particulars: 16 hours, Table A does not say which cell line (T47D or MCF7), read-out: Potency (DC50). An outline of the steps:
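Human T47D cells (DMEM, 10% FBS) are dosed for 16 h with 0.5% DMSO final and probed with 680- and 800-dye secondary antibodies. Relative ER is calculated against vehicle and untreated wells.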
On to `C[C@@H]1Cc2cc(O)ccc2[C@@H](c2c(F)cc(N3CCC(N4CCC(C(=O)N5Cc6cc7c(cc6C5)C(=O)N(C5CCC(=O)NC5=O)C7=O)CC4)CC3)cc2F)N1CC(C)(F)F` (stereo partly drawn) [E 29, 6-(1′-(4-((1S,3R)-2-(2,2-difluoropropyl)-6-hydroxy-3-methyl-1,2,3,4-tetrahydroisoquinolin-1-yl)-3,5-difluorophenyl)-[1,4′-bipiperidine]-4-carbonyl)-2-(2,6-dioxopiperidin-3-yl)-6,7-dihydropyrrolo[3,4-f]isoindole-1,3(2H,5H)-dione], for which the DC50 (in general, the concentration at which degradation of the target reaches its halfway point) was > 100 nM.
Consider `CN(C1CN(c2ccc([C@@H]3c4ccc(O)cc4CC[C@@H]3c3ccccc3)cc2)C1)[C@H]1CC[C@H](C(=O)N2Cc3cc4c(cc3C2)C(=O)N(C2CCC(=O)NC2=O)C4)CC1` (single isomer, unassigned) [E 355], for which the DC50 was > 100 nM.
On the same count and under the same terms, next, `C[C@@H]1Cc2c([nH]c3ccccc23)[C@@H](c2c(F)cc(N3CCC(C(=O)N4CCC(N5Cc6cc7c(cc6C5)C(=O)N(C5CCC(=O)NC5=O)C7=O)CC4)CC3)cc2F)N1CC(F)(F)F` (stereo partly drawn) [E 228, 6-(1-(1-(3,5-difluoro-4-((1R,3R)-3-methyl-2-(2,2,2-trifluoroethyl)-2,3,4,9-tetrahydro-1H-pyrido[3,4-b]indol-1-yl)phenyl)piperidine-4-carbonyl)piperidin-4-yl)-2-(2,6-dioxopiperidin-3-yl)-6,7-dihydropyrrolo[3,4-f]isoindole-1,3(2H,5H)-dione]: 10 to 100 nM.
Still for that read-out and setting: next, `O=C1CCC(N2C(=O)c3cc4c(cc3C2=O)CN(C(=O)CN2CC3(CCN(c5ccc([C@@H]6c7ccc(O)cc7CC[C@@H]6c6ccccc6)cc5)CC3)C2)C4)C(=O)N1` (mixture of isomers) [E 125, Rac-2-(2,6-dioxopiperidin-3-yl)-6-(2-(7-(4-((1R,2S)-6-hydroxy-2-phenyl-1,2,3,4-tetrahydronaphthalen-1-yl)phenyl)-2,7-diazaspiro[3.5]nonan-2-yl)acetyl)-6,7-dihydropyrrolo[3,4-f]isoindole-1,3(2H,5H)-dione]: 10 to 100 nM; `CN(C1CCC(N2Cc3cc4c(cc3C2)C(=O)N(C2CCC(=O)NC2=O)C4=O)CC1)C1CCN(c2ccc([C@@H]3c4ccc(O)cc4CC[C@@H]3c3ccccc3)cc2)CC1` (stereo partly drawn) [E 324, 2-(2,6-dioxopiperidin-3-yl)-6-(4-((1-(4-((1R,2S)-6-hydroxy-2-phenyl-1,2,3,4-tetrahydronaphthalen-1-yl)phenyl)piperidin-4-yl)(methyl)amino)cyclohexyl)-6,7-dihydropyrrolo[3,4-f]isoindole-1,3(2H,5H)-dione]: > 100 nM.
For `C[C@@H]1Cc2cc(O)ccc2[C@@H](c2c(F)cc(N3CCC4(CN(CC(=O)N5Cc6cc7c(cc6C5)C(=O)N(C5CCC(=O)NC5=O)C7)C4)C3)cc2F)N1CC(F)F` (stereo partly drawn) [E 38, 3-(6-(2-(6-(4-((1S,3R)-2-(2,2-difluoroethyl)-6-hydroxy-3-methyl-1,2,3,4-tetrahydroisoquinolin-1-yl)-3,5-difluorophenyl)-2,6-diazaspiro[3.4]octan-2-yl)acetyl)-1-oxo-3,5,6,7-tetrahydropyrrolo[3,4-f]isoindol-2(1H)-yl)piperidine-2,6-dione], the DC50 was 10 to 100 nM.
Consider `C[C@@H]1Cc2c([nH]c3ccccc23)[C@@H](c2c(F)cc(N3CCCC4(CCN(C(=O)CN5Cc6cc7c(cc6C5)C(=O)N(C5CCC(=O)NC5=O)C7)C4)C3)cc2F)N1CC(F)F` (stereo partly drawn) [E 67, 3-(6-(2-(7-(4-((1R,3R)-2-(2,2-difluoroethyl)-3-methyl-2,3,4,9-tetrahydro-1H-pyrido[3,4-b]indol-1-yl)-3,5-difluorophenyl)-2,7-diazaspiro[4.5]decan-2-yl)-2-oxoethyl)-1-oxo-3,5,6,7-tetrahydropyrrolo[3,4-f]isoindol-2(1H)-yl)piperidine-2,6-dione], for which the half-maximal degradation concentration (DC50) is 10 to 100 nM.
Still for that read-out and setting: under `O=C1CCC(N2C(=O)c3cc4c(cc3C2=O)CN(C(=O)CN2CCC3(CC2)CCN(c2ccc(C(=C(CCCl)c5ccccc5)c5ccc(O)cc5)cc2)C3)C4)C(=O)N1` (stereo not shown) [E 191, 6-(2-(2-(4-(4-chloro-1-(4-hydroxyphenyl)-2-phenylbut-1-en-1-yl)phenyl)-2,8-diazaspiro[4.5]decan-8-yl)acetyl)-2-(2,6-dioxopiperidin-3-yl)-6,7-dihydropyrrolo[3,4-f]isoindole-1,3(2H,5H)-dione] stands 10 to 100 nM; under `O=C1CCC(N2C(=O)c3cc4c(cc3C2=O)CN([C@H]2CC[C@H](NC3CN(c5ccc([C@@H]6c7ccc(O)cc7CC[C@@H]6c6ccccc6)cc5)C3)CC2)C4)C(=O)N1` (stereo partly drawn) [E 341, 2-(2,6-dioxopiperidin-3-yl)-6-((1R,4r)-4-((1-(4-((1R,2S)-6-hydroxy-2-phenyl-1,2,3,4-tetrahydronaphthalen-1-yl)phenyl)azetidin-3-yl)amino)cyclohexyl)-6,7-dihydropyrrolo[3,4-f]isoindole-1,3(2H,5H)-dione], > 100 nM; under `CCC(=C(c1ccc(O)cc1)c1ccc(N2CCC3(CCN(CC(=O)N4Cc5cc6c(cc5C4)C(=O)N(C4CCC(=O)NC4=O)C6=O)CC3)C2)cc1)c1ccccc1` (stereo not shown) [E 192, 2-(2,6-dioxopiperidin-3-yl)-6-(2-(2-(4-(1-(4-hydroxyphenyl)-2-phenylbut-1-en-1-yl)phenyl)-2,8-diazaspiro[4.5]decan-8-yl)acetyl)-6,7-dihydropyrrolo[3,4-f]isoindole-1,3(2H,5H)-dione], 10 to 100 nM.
In the case of `O=C1CCC(N2C(=O)c3cc4c(cc3C2=O)CN(CC2CN(CC3CN(c5ccc([C@@H]6c7ccc(O)cc7CC[C@@H]6c6ccc(F)cc6)cc5)C3)C2)C4)C(=O)N1` (stereo partly drawn) [E 278, 2-(2,6-dioxopiperidin-3-yl)-6-((1-((1-(4-((1R,2S)-2-(4-fluorophenyl)-6-hydroxy-1,2,3,4-tetrahydronaphthalen-1-yl)phenyl)azetidin-3-yl)methyl)azetidin-3-yl)methyl)-6,7-dihydropyrrolo[3,4-f]isoindole-1,3(2H,5H)-dione], the half-maximal degradation concentration (DC50) was > 100 nM.
In the case of `O=C1CCC(N2C(=O)c3cc4c(cc3C2=O)CN(CC2CCN(C(=O)C3CN(c5ccc([C@@H]6c7ccc(O)cc7CC[C@@H]6c6ccccc6)cc5)C3)CC2)C4)C(=O)N1` (stereo partly drawn) [E 201, 2-(2,6-dioxopiperidin-3-yl)-6-((1-(1-(4-((1R,2S)-6-hydroxy-2-phenyl-1,2,3,4-tetrahydronaphthalen-1-yl)phenyl)azetidine-3-carbonyl)piperidin-4-yl)methyl)-6,7-dihydropyrrolo[3,4-f]isoindole-1,3(2H,5H)-dione], the DC50 was > 100 nM.
`C[C@@H]1Cc2c([nH]c3ccccc23)[C@@H](c2c(F)cc(C3CCN(C[C@H]4CC[C@@H](N5Cc6cc7c(cc6C5)C(=O)N(C5CCC(=O)NC5=O)C7=O)CC4)CC3)cc2F)N1CC(F)F` (stereo partly drawn) [E 367, 6-((1S,4s)-4-((4-(4-((1R,3R)-2-(2,2-difluoroethyl)-3-methyl-2,3,4,9-tetrahydro-1H-pyrido[3,4-b]indol-1-yl)-3,5-difluorophenyl)piperidin-1-yl)methyl)cyclohexyl)-2-(2,6-dioxopiperidin-3-yl)-6,7-dihydropyrrolo[3,4-f]isoindole-1,3(2H,5H)-dione]: the 50% degradation concentration (DC50) is > 100 nM.
As to `C[C@@H]1Cc2c([nH]c3ccccc23)[C@@H](c2c(F)cc(N3CC(CC(=O)N4CC(N5Cc6cc7c(cc6C5)C(=O)N(C5CCC(=O)NC5=O)C7)C4)C3)cc2F)N1CC(F)F` (stereo partly drawn) [E 134, 3-(6-(1-(2-(1-(4-((1R,3R)-2-(2,2-difluoroethyl)-3-methyl-2,3,4,9-tetrahydro-1H-pyrido[3,4-b]indol-1-yl)-3,5-difluorophenyl)azetidin-3-yl)acetyl)azetidin-3-yl)-1-oxo-3,5,6,7-tetrahydropyrrolo[3,4-f]isoindol-2(1H)-yl)piperidine-2,6-dione], the DC50 lay in the range of 10 to 100 nM.

The experiment is the same for the next values; noted with them: compounds 16 hours, Table A does not say whether T47D or MCF7, read-out: Potency (DC50).
In the case of `C[C@@H]1Cc2cc(O)ccc2[C@@H](c2c(F)cc(N(C)C3CC4(CCN(C(=O)CN5Cc6cc7c(cc6C5)C(=O)N(C5CCC(=O)NC5=O)C7=O)CC4)C3)cc2F)N1CC(F)F` (stereo partly drawn) [E 452, 6-(2-(2-((4-((1S,3R)-2-(2,2-difluoroethyl)-6-hydroxy-3-methyl-1,2,3,4-tetrahydroisoquinolin-1-yl)-3,5-difluorophenyl)(methyl)amino)-7-azaspiro[3.5]nonan-7-yl)-2-oxoethyl)-2-(2,6-dioxopiperidin-3-yl)-6,7-dihydropyrrolo[3,4-f]isoindole-1,3(2H,5H)-dione], the half-maximal degradation concentration (DC50) is 10 to 100 nM.
Take `O=C1CCC(N2C(=O)c3cc4c(cc3C2=O)CN(C2CC3CCC(C2)N3CC2CCN(c3ccc([C@@H]5c6ccc(O)cc6CC[C@@H]5c5ccccc5)cc3)CC2)C4)C(=O)N1` (stereo partly drawn) [E 497, 2-(2,6-dioxopiperidin-3-yl)-6-(8-((1-(4-((1R,2S)-6-hydroxy-2-phenyl-1,2,3,4-tetrahydronaphthalen-1-yl)phenyl)piperidin-4-yl)methyl)-8-azabicyclo[3.2.1]octan-3-yl)-6,7-dihydropyrrolo[3,4-f]isoindole-1,3(2H,5H)-dione]: the DC50 was > 100 nM.
